Data taken from patent US4745124A, “Orally effective anti-hypertensive agents” (priority 1983, dated 1988).

How the values were obtained:
[1] = resistance of thioester compounds to alkaline hydrolysis; assay type: physicochemical
Text: Therefore the observed inhibitory effects cannot be accounted for by postulating spontaneous hydrolysis of the thioester bond to regenerate the free sulfhydryl group.

[2] = tested on: pressor effects of angiotensin I; test: oral effectiveness: blood pressure response to angiotensin I in anesthetized rats; assay type: in vivo, rat
Summary of the method: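 Fasted rats under pentobarbital anesthesia (50-60 mg/kg i.p.), ventilated, with carotid arterial pressure recorded; i.v. angiotensin I (80 ng, 160 ng or 400 ng/kg) or angiotensin II (80 ng) challenges repeated at timed intervals after oral gavage of compound (2-20 mg/kg, 10 mg, 17 or 23 μmol/kg) in aqueous NaHCO3.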

[3] = tested on: pressor effects of angiotensin II; test: oral: blood pressure response to angiotensin II in anesthetized rats; assay type: in vivo, rat; conditions: 2 or 5 mg/kg, angiotensin II 80 ng
Procedure: Rats (210-290 g body weight) were fasted overnight and then anesthetized with intraperitoneal pentobarbital, 50-60 mg/kg. Tracheostomy was performed and the animals were ventilated mechanically. A cannula was inserted into a femoral vein for injection of angiotensin I or II, and a second cannula was inserted into a common carotid artery for direct measurement of arterial blood pressure. Heparin, 1,000 units, was injected via the femoral vein to prevent coagulation. Blood pressure was measured with a pressure transducer connected to a polygraph. The rats were injected with 80 ng of angiotensin I or angiotensin II in 20 μl of 0.9 g % NaCl; an amount of antiotensin I or II sufficient to raise mean arterial blood pressure by 27-40 mm Hg. After the responsiveness of a given rat to angiotensins I and II was established, compound (I), at 2 or 5 mg/kg (drug dissolved in 0.5 ml of H2 O plus 10 μl of 1N NaHCO3), was given via a stomach tube. At timed intervals, the effects of 80 ng of angiotensin I or angiotensin II on mean arterial blood pressure were tested.
Rats were prepared as described in Example 222. Compound (II) [N-benzoyl-L-phenylalanylthiopropanoyl)-L-proline] was given orally, via a stomach tube, at a dose of 12 mg/kg or 20 mg/kg. Compound (II) was dissolved in 0.5 ml of H2 O plus 10 μl of 1N NaHCO3. […]

For `C[C@H](CSC(=O)C(Cc1ccccc1)NC(=O)c1ccccc1)C(=O)N1CCC[C@H]1C(=O)O` (stereo partly drawn) [Compound (I), 2-benzoylphenylalanylthio-2-D-methylpropanoyl-L-proline], the “resistance to alkaline hydrolysis” value [1] was “surprisingly resistant to alkaline hydrolysis”, the “hydrolysis at pH 9.5 in 1M NaHCO3” value ([1]; pH 9.5, 1M NaHCO3) was “not hydrolyzed” and the “Blood Pressure Response to 80 ng of Angiotensin I” value (shortened to “Blood Pressure Response to 80 ng”) ([2]; oral 2 mg/kg, 6 min, Rat 3) was 111 % of control. The “Blood Pressure Response to 80 ng” value ([2]; oral 2 mg/kg, 12 min, Rat 3) was 93 % of control, the “Blood Pressure Response to 80 ng” value ([2]; oral 2 mg/kg, 18 min, Rat 3) was 81 % of control and the “Blood Pressure Response to 80 ng” value ([2]; oral 2 mg/kg, 24 min, Rat 3) was 85 % of control. The “Blood Pressure Response to 80 ng” value ([2]; oral 2 mg/kg, 35 min, Rat 3) was 56 % of control, the “Blood Pressure Response to 80 ng” value ([2]; oral 2 mg/kg, 58 min, Rat 3) was 56 % of control and the “Blood Pressure Response to 80 ng” value ([2]; oral 2 mg/kg, 68 min, Rat 3) was 52 % of control. The “Blood Pressure Response to 80 ng” value ([2]; oral 2 mg/kg, 88 min, Rat 3) was 30 % of control, the “Blood Pressure Response to 80 ng” value ([2]; oral 2 mg/kg, 118 min, Rat 3) was 37 % of control and the “Blood Pressure Response to 80 ng” value ([2]; oral 2 mg/kg, 138 min, Rat 3) was 60 % of control. For the same compound, the “Blood Pressure Response to 80 ng” value ([2]; oral 2 mg/kg, 169 min, Rat 3) was 37 % of control, the “Blood Pressure Response to 80 ng” value ([2]; oral 2 mg/kg, 185 min, Rat 3) was 37 % of control and the “Blood Pressure Response to 80 ng” value ([2]; oral 2 mg/kg, 205 min, Rat 3) was 44 % of control. For the same compound, the “Blood Pressure Response to 80 ng” value ([2]; oral 5 mg/kg, 6 min, Rat 2) was 67 % of control, the “Blood Pressure Response to 80 ng” value ([2]; oral 5 mg/kg, 12 min, Rat 1) was 41 % of control and the “Blood Pressure Response to 80 ng” value ([2]; oral 5 mg/kg, 12 min, Rat 2) was 57 % of control. The “Blood Pressure Response to 80 ng” value ([2]; oral 5 mg/kg, 18 min, Rat 1) was 36 % of control, the “Blood Pressure Response to 80 ng” value ([2]; oral 5 mg/kg, 24 min, Rat 2) was 43 % of control and the “Blood Pressure Response to 80 ng” value ([2]; oral 5 mg/kg, 35 min, Rat 1) was 23 % of control. The “Blood Pressure Response to 80 ng” value ([2]; oral 5 mg/kg, 35 min, Rat 2) was 37 % of control, the “Blood Pressure Response to 80 ng” value ([2]; oral 5 mg/kg, 48 min, Rat 1) was 18 % of control and the “Blood Pressure Response to 80 ng” value ([2]; oral 5 mg/kg, 48 min, Rat 2) was 17 % of control. For the same compound, the “Blood Pressure Response to 80 ng” value ([2]; oral 5 mg/kg, 58 min, Rat 1) was 23 % of control, the “Blood Pressure Response to 80 ng” value ([2]; oral 5 mg/kg, 58 min, Rat 2) was 17 % of control and the “Blood Pressure Response to 80 ng” value ([2]; oral 5 mg/kg, 68 min, Rat 2) was 20 % of control. For the same compound, the “Blood Pressure Response to 80 ng” value ([2]; oral 5 mg/kg, 78 min, Rat 2) was 17 % of control, the “Blood Pressure Response to 80 ng” value ([2]; oral 5 mg/kg, 88 min, Rat 2) was 13 % of control and the “Blood Pressure Response to 80 ng” value ([2]; oral 5 mg/kg, 118 min, Rat 1) was 23 % of control. The “Blood Pressure Response to 80 ng” value ([2]; oral 5 mg/kg, 185 min, Rat 2) was 27 % of control, the “Blood Pressure Response to 80 ng” value ([2]; oral 5 mg/kg, 205 min, Rat 2) was 33 % of control and the “Blood Pressure Response to 80 ng” value ([2]; oral 5 mg/kg, 213 min, Rat 2) was 33 % of control. For the same compound, the “Blood Pressure Response to 80 ng” value ([2]; oral 5 mg/kg, 226 min, Rat 2) was 43 % of control, the “duration of drug action” value ([2]; oral, 2 or 5 mg/kg) was greater than 226 min and the “effects of angiotensin II (specificity)” value [3] was “not inhibited”.
